Patent US20230201221A1, “USE OF TERPENOIDS IN THE TREATMENT OR PREVENTION OF FIBROTIC DISEASES” (ARJIL BIOTECH HOLDING COMPANY LIMITED, priority 2020, published 2023)

Tests used:
Assay type in all cases: in vivo
[1] = test system: C57BL/6 mice; assay: Cisplatin-induced renal injury in mice: kidney histopathology (H&E); conditions: extract at 1000 mg/kg; cisplatin-stimulated mice
Description: Kidney histopathology The anterior portion of the […] from each mouse is fixed in 10% formaldehyde phosphate buffer, embedded in paraffin, cut into 5 μm sections, and then treated with an hematoxylin and eosin (H&E) stain for histological examination under the light microscopy (Nikon, ECLIPSE, TS100, Tokyo, Japan). Images are captured with a digital camera (NIS-Elements D 2.30, SP4, Build 387) at an original magnification of 400×.
Seven-to-eight-week-old male C57BL/6 mice are obtained from the BioLASCO Taiwan Co., Ltd. (Taipei, Taiwan). The animals are housed in Plexiglas cages at a constant temperature of 22±1° C. and a relative humidity of 55±5% on a 12 h dark-light cycle for at least 2 weeks before the experiment. Animals are provided food and water ad libitum. All experimental procedures are performed according to the guidelines of the Institutional Animal Ethics Committee, and the protocol is approved by the Committee for the Purpose of Control and Supervision of Experiments on Animals.
Renal fibrosis is induced via multiple injections of low-dose cisplatin. Intraperitoneal injections of cisplatin (5 mg/kg/injection; P4394, Sigma-Aldrich, St Louis, Mo.) are performed at 0, 1, and 3 weeks, for a total of 3 injections. Mice are sacrificed at 6 weeks after the first dose of cisplatin (n=6). […]

[2] = test system: ICR mice; assay: Bleomycin-induced pulmonary fibrosis in mice: body weight, lung weight, lung index
Protocol: Specific pathogen-free ICR mice (males) (body weights 18-22 g) were purchased from the BioLASCO Taiwan Co., Ltd. (Taipei, Taiwan). The animals were housed in Plexiglas cages at a constant temperature of 22±1° C. and a relative humidity of 55±5% on a 12 h dark-light cycle for at least 2 weeks before the experiment. Animals were provided food and water ad libitum. All experimental procedures were performed according to the guidelines of the Institutional Animal Ethics Committee, and the protocol was approved by the Committee for the Purpose of Control and Supervision of Experiments on Animals.
(§1) Mice were divided into fifth groups with 5 animals per group according to body weight: control group, BLM group, BLM+DEX group (7.5 mg/kg), BLM+ACH dosage group (50 mg/kg), and BLM+ACM dosage group (25 mg/kg), BLM+ACH dosage group (50 mg/kg), and BLM+ACM dosage group (25 mg/kg) BLM+AH dosage group (50 mg/kg), and BLM+AM dosage group (25 mg/kg) BLM+BH dosage group (50 mg/kg), and BLM+BM dosage group (25 mg/kg) BLM+CH dosage group (50 mg/kg), and BLM+CM dosage group (25 mg/kg) BLM+DH dosage group (50 mg/kg), and BLM+DM dosage group (25 mg/kg) BLM+EH dosage group (50 mg/kg), and BLM+EM dosage group (25 mg/kg) BLM. Pulmonary fibrosis (PF) was established in mice via a single intratracheal administration of BLM at 7.5 mg/kg mg/kg body weight. Different doses of samples were intragastrically administered daily for 21 days after BLM injury, and DEX was used as the positive control. Control and model groups received an equal volume of vehicle (0.9% NaCl) using the same schedule and route of administration.
Mouse body weights were recorded daily. Mice were sacrificed on the 21th day using excess chloral hydrate hydrochloride anesthesia. Blood was obtained for ELISA analyses, and whole lungs were removed and weighed. The right lungs were fixed in 10% formalin, dehydrated, and embedded in paraffin. The left lungs were used to determine hydroxyproline. The pulmonary coefficient was calculated using the following equation: lung weight/body weight×100%
1. Group I: control; 2. Group II: mice received single intraperitoneal injection of BLM (7.5 mg/kg BW) 3. Group III: single dose (ACH, 0.5 g/kg) 4. Group IV: Single dose (ACM, 1.0 g/kg) 5. […] Group VII: purified AR101-DS2 (50 mg/kg) 8. Group VIII: purified AR101-DS2 (25 mg/kg) 7. Group VII: purified AR101-DS4 (50 mg/kg) 8. Group VIII: purified AR101-DS4 (25 mg/kg) 7. […] Group VII: purified ARH013-RA1 (50 mg/kg) 8. Group VIII: purified ARH013-RA1 (25 mg/kg)

[3] = test system: MPO; assay: Bleomycin-induced pulmonary fibrosis in mice: lung myeloperoxidase (MPO) assay; conditions: compared with BLM group, p<0.001
Protocol: as §1
The pulmonary MPO activity was a reliable index for estimating the infiltration of inflammatory cells in lungs. The lung tissues were homogenized and the MPO levels were detected with the kits according to manufacturer's instruction.

[4] = test system: SD rats; assay: CCl4-induced chronic liver fibrosis in rat
Protocol: Blood samples are collected at week 0, 2, 4, 6, and 8. The animals are sacrificed at the end of the 8-week for histopathological examinations. FIGS. 7A, 7B, 7C depict delta weight, liver weight, and liver/body-weight ratio, respectively.
The level of clinical biochemistry such as aspartate aminotransferase (AST), alanine aminotransferase (ALT), is evaluated to determine the enzymatic activities of the livers of the control groups and the experimental groups (shown in FIGS. 8A-8C).

[5] = 25 mg/kg intragastric daily for 21 days after BLM
[6] = 50 mg/kg intragastric daily for 21 days after BLM

**Q.** How did the “necrosis and inflammatory infiltrating cells in the kidney tissue (H&E)” value [1] turn out when `C=C1C(=O)O[C@H]2/C=C(\C)CC3C=C(CC/C=C(\C)CC[C@H]12)C(=O)O3` (stereo partly drawn) [AR100-DS1, Ovatodiolide] was run?
**A.** significantly improved necrosis and inflammatory infiltrating cells in the kidney tissue

**Q.** What about the Final body mass [2, 5] of the same compound?
**A.** 37.33 ± 0.25 g

**Q.** And the Pulmonary mass [2, 5]?
**A.** 0.52 ± 0.02 g

**Q.** What about the Final body mass [2, 6] of the same compound?
**A.** 39.12 ± 0.30 g

**Q.** What about the Pulmonary mass [2, 6] of the same compound?
**A.** 0.39 ± 0.01 g

**Q.** What about the “lung MPO activity” value [3] of the same compound?
**A.** evidently suppressed the MPO activities

**Q.** What about the “serum AST and ALT level” value ([4]; 50 mg/kg, W6 and W8, compared with the vehicle group) of the same compound?
**A.** less AST and ALT increases

**Q.** What about the liver appearance ([4]; 50 mg/kg, after 8 weeks of CCl4 induction) of the same compound?
**A.** smooth surface without atrophy and sclerosis

**Q.** What about the “overall effect on CCl4-induced liver injury” value ([4]; 8 weeks of CCl4 induction) of the same compound?
**A.** potential to partially repair CCl4-induced liver injury
